This is an account of results in ChEMBL document CHEMBL1153340, “Inhibitors of HIV-1 attachment. Part 2: An initial survey of indole substitution patterns” (Bioorg Med Chem Lett, 2009).

Converted amounts (≈) assume the structure as drawn.

A short description of series [1]: Cmax in rat at 25 mg/kg, po dosed as solution in PEG400/EtOH. It counts as ADME, organism-based. Also noted: dose 25 mg/kg, route oral. The note with it: in vivo.
Series [2] in a line: Cytotoxicity against human HeLa67 cells expressing CD4/CCR5 after 3 days by XTT assay. It counts as cell-based. In general terms: Tetrazolium dyes change colour on reduction, which living cells bring about.
Series [3] relates to Human immunodeficiency virus 1. Description: Antiviral activity against pseudotype HIV1 JRFL infected in human HeLa67 cells expressing CD4/CCR5 after 3 days by luciferase reporter gene assay. It counts as functional, organism-based. The note with it: Human immunodeficiency virus 1, JRFL, HeLa67, 72 h. In general terms: Reporter assays use an easily measured gene product as a stand-in for the process of interest.

A short description of series [4]: Clearance in rat at 5 mg/kg, iv dosed as solution in PEG400/EtOH. The note with it: in vivo. It counts as ADME, organism-based. More on the design: dose 5 mg/kg, route intravenous.
Series [5] in a line: Volume of distribution at steady state in rat at 5 mg/kg, iv dosed as solution in PEG400/EtOH. It counts as ADME, organism-based. More on the design: dose 5 mg/kg, route intravenous. The note with it: in vivo, read-out: Vdss.
The nature of series [6]: Terminal half life in rat at 5 mg/kg, iv dosed as solution in PEG400/EtOH. It counts as ADME, organism-based. More on the design: dose 5 mg/kg, route intravenous. The note with it: in vivo, read-out: beta t1/2.
Series [7] is described as follows: Mean residence time in rat at 5 mg/kg, iv dosed as solution in PEG400/EtOH. It counts as ADME, organism-based. More on the design: dose 5 mg/kg, route intravenous. The note with it: in vivo.
Series [8] is described as follows: Tmax in rat at 25 mg/kg, po dosed as solution in PEG400/EtOH. It counts as ADME, organism-based. Also noted: dose 25 mg/kg, route oral. The note with it: in vivo.
Series [9] in a line: Tmax in rat at 5 mg/kg, po dosed as solution in PEG400/EtOH. The note with it: in vivo. Also noted: dose 5 mg/kg, route oral. It counts as ADME, organism-based.
Series [10] can be described thus: Terminal half life in rat at 25 mg/kg, po dosed as solution in PEG400/EtOH. The note with it: in vivo, read-out: beta t1/2. It counts as ADME, organism-based. More on the design: dose 25 mg/kg, route oral.
Series [11] in a line: Oral bioavailability in rat at 25 mg/kg dosed as solution in PEG400/EtOH. It counts as ADME, organism-based. The note with it: in vivo.
Series [12] is described as follows: Oral bioavailability in rat at 5 mg/kg dosed as solution in PEG400/EtOH. It counts as ADME, organism-based. The note with it: in vivo.
The nature of series [13]: Permeability across human Caco-2 cells. It counts as ADME, cell-based. The note with it: read-out: permeability. (Passage across Caco-2 layers is used to estimate intestinal permeability.)
Series [14] is described as follows: Cmax in rat at 5 mg/kg, po dosed as nanosuspension. It counts as ADME, organism-based. Also noted: dose 5 mg/kg, route oral. The note with it: in vivo.
Series [15] can be described thus: Tmax in rat at 5 mg/kg, po dosed as nanosuspension. It counts as ADME, organism-based. Also noted: dose 5 mg/kg, route oral. The note with it: in vivo.
Series [16] in a line: Oral bioavailability in rat at 5 mg/kg dosed as nanosuspension. It counts as ADME, organism-based. The note with it: in vivo.
A short description of series [17]: Cmax in dog at 1 mg/kg, po dosed as solution in PEG400/EtOH. It counts as ADME, organism-based, Canis lupus familiaris. More on the design: dose 1 mg/kg, route oral. The note with it: in vivo.
Series [18] is described as follows: Tmax in dog at 1 mg/kg, po dosed as solution in PEG400/EtOH. It counts as ADME, organism-based, Canis lupus familiaris. Also noted: dose 1 mg/kg, route oral. The note with it: in vivo.
The nature of series [19]: Oral bioavailability in dog at 1 mg/kg dosed as solution in PEG400/EtOH. It counts as ADME, organism-based, Canis lupus familiaris. The note with it: in vivo.
Series [20] is described as follows: Cmax in dog at 1 mg/kg, po dosed as micronized suspension. Also noted: dose 1 mg/kg, route oral. The note with it: in vivo. It counts as ADME, organism-based, Canis lupus familiaris.
A short description of series [21]: Tmax in dog at 1 mg/kg, po dosed as micronized suspension. More on the design: dose 1 mg/kg, route oral. It counts as ADME, organism-based, Canis lupus familiaris. The note with it: in vivo.
Series [22] can be described thus: Oral bioavailability in dog at 1 mg/kg dosed as micronized suspension. It counts as ADME, organism-based, Canis lupus familiaris. The note with it: in vivo.
A short description of series [23]: Oral bioavailability in dog at 1 mg/kg dosed as nanosuspension. It counts as ADME, organism-based, Canis lupus familiaris. The note with it: in vivo.
The nature of series [24]: Solubility in water. The note with it: buffer. It counts as physicochemical.
Series [25] can be described thus: Solubility in poly ethylene glycol 400. It counts as physicochemical. The note with it: polyethylene glycol 400.
Series [26] in a line: Cmax in dog at 1 mg/kg, po dosed as nanosuspension. It counts as ADME, organism-based, Canis lupus familiaris. Also noted: dose 1 mg/kg, route oral. The note with it: in vivo.
Series [27] can be described thus: Tmax in dog at 1 mg/kg, po dosed as nanosuspension. It counts as ADME, organism-based, Canis lupus familiaris. More on the design: dose 1 mg/kg, route oral. The note with it: in vivo.
Series [28] is described as follows: Clearance in rat at 1 mg/kg, iv dosed as solution in PEG400/EtOH. Also noted: dose 1 mg/kg, route intravenous. It counts as ADME, organism-based. The note with it: in vivo.
A short description of series [29]: Volume of distribution at steady state in rat at 1 mg/kg, iv dosed as solution in PEG400/EtOH. More on the design: dose 1 mg/kg, route intravenous. It counts as ADME, organism-based. The note with it: in vivo, read-out: Vdss.
Series [30] is described as follows: Terminal half life in rat at 1 mg/kg, iv dosed as solution in PEG400/EtOH. It counts as ADME, organism-based. More on the design: dose 1 mg/kg, route intravenous. The note with it: in vivo, read-out: beta t1/2.
Series [31] is described as follows: Mean residence time in rat at 1 mg/kg, iv dosed as solution in PEG400/EtOH. It counts as ADME, organism-based. More on the design: dose 1 mg/kg, route intravenous. The note with it: in vivo.
Series [32] in a line: Cmax in rat at 5 mg/kg, po dosed as solution in PEG400/EtOH. It counts as ADME, organism-based. More on the design: dose 5 mg/kg, route oral. The note with it: in vivo.
A short description of series [33]: Terminal half life in rat at 5 mg/kg, po dosed as solution in PEG400/EtOH. It counts as ADME, organism-based. Also noted: dose 5 mg/kg, route oral. The note with it: in vivo, read-out: beta t1/2.
Series [34] has as its system Human immunodeficiency virus 1. Put plainly: Antiviral activity against pseudotype HIV1 LAI infected in human HeLa67 cells expressing CD4/CCR5 after 3 days by luciferase reporter gene assay. It counts as functional, organism-based. The note with it: Human immunodeficiency virus 1, LAI, HeLa67, 72 h.

For `O=C(C(=O)N1CCN(C(=O)c2ccccc2)CC1)c1c[nH]c2cccc(F)c12`, the Cmax (as a rule, the maximum level reached in the sampled fluid or tissue) was found to be 0.649 µg/mL in series [1]; 0.018 µg/mL in series [14]; 0.56 µg/mL in series [17]; 0.06 µg/mL in [20]; 0.16 µg/mL in series [26]. For the same compound, the CC50 (as a rule, the concentration giving 50% cytotoxicity) at 72 h in series [2] was greater than 300 µM. Besides, the response in [3] was half-maximal at 0.00259 µM (EC50). The clearance (commonly the volume of plasma or blood freed of the substance per unit of time) in [4] was found to be 2.88 L/h/kg. For the same compound, the Vd in [5] came out at 0.99 L/kg. The values for the half-life in series [6] and in [10] were 0.467 h and 1.2 h, respectively. In addition, in series [7], the MRT – broadly, a mean duration of stay, worked out from the concentration-time curve – is 0.35 h. Further, the time to peak (Tmax) (as a rule, the time from dosing to the highest level) was 0.883 h in [8]; 0.617 h in series [9]; 2.83 h in [15]; 1.2 h in series [18]; 4 h in series [21]; 1.8 h in [27]. The bioavailability in [11] amounted to 17%; in series [12], 9%; in series [16], 4%; in [19], 89%; in [22] it was 12%; in series [23] it was 36%. Further, the Papp in [13] was 100 nm/s. For the same compound, the solubility (in general, the concentration that dissolves in the medium under given conditions) amounted to 0.005 µg/mL (≈ 1.32e-05 mM) in series [24] and 4600 µg/mL (≈ 12.1 mM) in [25].
For the compound `COc1ccc(OC)c2c(C(=O)C(=O)N3CCN(C(=O)c4ccccc4)CC3)c[nH]c12`, the midpoint of cytotoxicity in series [2], the CC50 at 72 h, lay at 279 µM. In addition, a half-maximal effect in series [3] (EC50) was put at 0.00023 µM. The clearance in series [28] was 0.312 L/h/kg. Also, in [29], the Vd came out at 0.52 L/kg. The half-life in series [30] was determined as 2.3 h; in series [33], 1.85 h. Further, the MRT in series [31] was 1.7 h. In addition, the highest level in series [32] (Cmax) was 3.2 µg/mL. Also, the Tmax in series [9] is 3 h. The bioavailability in [12] is 107%.
The compound `O=C(C(=O)N1CCN(C(=O)c2ccccc2)CC1)c1c[nH]c2c(F)ccc(F)c12` gave a 50% cytotoxic concentration (CC50) at 72 h in series [2] greater than 300 µM. Also, in [3], the EC50 (as a rule, the concentration giving half of the maximal effect) turned out to be 0.00035 µM. Also, the clearance in series [28] stood at 2.81 L/h/kg. Besides, in [29], the Vd came to 0.85 L/kg. For the same compound, the half-life in series [30] was 0.283 h; in series [33] it was 9.18 h. In addition, in series [31], the MRT is 0.317 h. The peak level in series [32] (Cmax) was 0.055 µg/mL. For the same compound, the Tmax in series [9] is 0.333 h. The bioavailability in [12] amounted to 11%. Further, the Papp in [13] stood at 219 nm/s.
As for `O=C(C(=O)N1CCN(C(=O)c2ccccc2)CC1)c1c[nH]c2cc(Cl)ccc12`, the CC50 at 72 h in series [2] is greater than 110 µM. For the same compound, the EC50 in [3] came out at 0.208 µM.
With `Cc1ccc(C)c2c(C(=O)C(=O)N3CCN(C(=O)c4ccccc4)CC3)c[nH]c12`, the CC50 at 72 h in [2] stood at 202 µM. Also, the EC50 in series [3] is greater than 0.5 µM.
In the same order, the values of `O=C(C(=O)N1CCN(C(=O)c2ccccc2)CC1)c1c[nH]c2cccc([N+](=O)[O-])c12` are greater than 300 µM and 0.15 µM.
`O=C(C(=O)N1CCN(C(=O)c2ccccc2)CC1)c1c[nH]c2ccccc12` came in with a Cmax in series [1] of 1.04 µg/mL. The compound also displayed a half-maximal cytotoxic concentration (CC50) at 72 h in [2] of 339 µM. This compound also gave a half-maximal effective concentration (EC50) in series [3] of 0.153 µM. The clearance in series [4] stood at 3.42 L/h/kg. In addition, the Vd in series [5] amounted to 1.5 L/kg. The half-life was found to be 0.5 h in series [6] and 2.72 h in series [10]. Moreover, in series [7], the mean residence time MRT is 0.433 h. Moreover, the Tmax in series [8] was 0.55 h. In series [11], the bioavailability amounted to 29%. The Papp in [13] stood at 228 nm/s.
In [2], `O=C(C(=O)N1CCN(C(=O)c2ccccc2)CC1)c1c[nH]c2cccc(Br)c12` displayed a CC50 at 72 h of 142 µM. The response in series [3] was half-maximal at 0.0045 µM (EC50).
`O=C(C(=O)N1CCN(C(=O)c2ccccc2)CC1)c1c[nH]c2c(F)ccc(Br)c12` yielded a 50% cytotoxic concentration (CC50) at 72 h in series [2] of 86 µM. In series [3], this compound had a half-maximal effective concentration (EC50) of 0.0082 µM.
With `O=C(C(=O)N1CCN(C(=O)c2ccccc2)CC1)c1c[nH]c2cc(Cl)c(Cl)cc12`, the CC50 at 72 h in [2] worked out at 52.3 µM. Further, in series [34], the half-maximal effective concentration (EC50) was 0.5 µM.
In the case of `O=C(C(=O)N1CCN(C(=O)c2ccccc2)CC1)c1c[nH]c2c(F)cccc12`, the CC50 at 72 h in series [2] is greater than 152 µM. This compound showed an EC50 in series [3] of 0.0073 µM.
In series [2], `CCCCn1cc(C(=O)C(=O)N2CCN(C(=O)c3ccccc3)CC2)c2ccccc21` gave a CC50 at 72 h greater than 300 µM. This compound also displayed an EC50 in series [3] of 2.65 µM.
Consider `CCCCOc1cccc2c(C(=O)C(=O)N3CCN(C(=O)c4ccccc4)CC3)c[nH]c12`, for which, in series [2], the CC50 at 72 h is 64.5 µM. The EC50 in [3] was determined as 0.00014 µM.
